Data: patent US9199981B2 (NOVARTIS AG, priority 2011, dated 2015)

Target: c-kit (Homo sapiens (Human), UniProt P10721)
Test: Mo7e cell proliferation assay (SCF dependent proliferation)
Type: cell-based
Details: Mo7e cells stimulated with human recombinant SCF, 48 hours, 1% FBS
Description: Compounds of Formula (I) and Formula (II) provided herein were assayed to measure their capacity to inhibit c-kit and PDGFR kinases using the appropriate assay described below: c-Kit inhibition was evaluated using the Mo7e cell proliferation assay, and PDGFR inhibition was evaluated using the Rat A10 cell proliferation assay and the Human TG/HA-VSMC cell proliferation assay.
Mo7e Cell Proliferation Assay
The compounds of Table 1 and Table 2 were tested for inhibition of SCF dependent proliferation using human Mo7e cells which endogenously express c-kit in a 384 well format. […] After 48 hours of incubation at 37° C., cell viability was measured by adding 25 uL of CellTiter Glo (Promega) to the cells and the luminescence was measured by a CLIPR CCD camera (Molecular Devices).
The IC50 value is given as that concentration of the test compound in question that provoke a response halfway between the baseline and maximum responses.

c-kit, sequence (P10721 26-976): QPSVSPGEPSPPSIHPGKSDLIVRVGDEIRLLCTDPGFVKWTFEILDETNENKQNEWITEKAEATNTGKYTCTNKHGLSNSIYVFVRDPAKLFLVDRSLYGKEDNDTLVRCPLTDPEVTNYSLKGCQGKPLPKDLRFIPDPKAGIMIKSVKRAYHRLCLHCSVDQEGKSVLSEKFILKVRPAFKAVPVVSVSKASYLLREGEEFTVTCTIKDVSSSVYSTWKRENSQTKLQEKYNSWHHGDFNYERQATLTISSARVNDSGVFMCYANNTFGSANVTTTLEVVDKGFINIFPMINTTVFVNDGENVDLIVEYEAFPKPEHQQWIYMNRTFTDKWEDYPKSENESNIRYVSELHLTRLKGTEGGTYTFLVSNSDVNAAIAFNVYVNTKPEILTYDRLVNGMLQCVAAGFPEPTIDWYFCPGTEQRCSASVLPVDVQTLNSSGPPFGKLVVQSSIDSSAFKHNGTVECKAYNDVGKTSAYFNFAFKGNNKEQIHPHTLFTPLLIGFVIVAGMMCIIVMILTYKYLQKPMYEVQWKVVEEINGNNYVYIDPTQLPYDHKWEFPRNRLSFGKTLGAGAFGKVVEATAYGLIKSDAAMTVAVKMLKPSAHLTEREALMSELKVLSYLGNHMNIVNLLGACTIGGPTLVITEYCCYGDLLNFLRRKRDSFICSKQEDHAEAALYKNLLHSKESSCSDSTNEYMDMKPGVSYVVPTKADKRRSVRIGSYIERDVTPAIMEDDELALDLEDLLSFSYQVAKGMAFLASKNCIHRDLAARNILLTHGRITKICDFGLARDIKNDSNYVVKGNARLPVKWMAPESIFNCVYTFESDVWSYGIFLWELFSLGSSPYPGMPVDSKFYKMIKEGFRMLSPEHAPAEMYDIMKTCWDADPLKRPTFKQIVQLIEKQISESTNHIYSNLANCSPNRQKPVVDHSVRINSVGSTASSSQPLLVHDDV

IC50 | SMILES
26 nM | Cc1ccc(-c2noc(C3CC(F)(F)C3)n2)cc1NC(=O)c1cnc2ccc(N3CCOCC3)cn12 [F81]
49 nM | Cc1ccc(-c2noc(C3CCC3)n2)cc1NC(=O)c1cnc2ccc(COCC(F)(F)F)cn12 [F86]
77 nM | Cc1cn(-c2ccc3ncc(C(=O)Nc4cc(-c5noc(C6CC(F)(F)C6)n5)ccc4C)n3c2)cn1 [F95]
86 nM | COCC1(c2nc(-c3ccc(C)c(NC(=O)c4cnc5ccc(F)cn45)c3)no2)CCC1 [F98]
67 nM | Cc1ccc(-c2noc([C@@H]3C[C@@H]3F)n2)cc1NC(=O)c1cnc2ccccn12 [F101]
9 nM | Cc1ccn2c(C(=O)Nc3cc(-c4noc(COC5CC(F)(F)C5(F)F)n4)ccc3C)cnc2c1 (stereo not drawn) [F102]
16 nM | Cc1ccc2ncc(C(=O)Nc3cc(-c4noc(COC5CC(F)(F)C5(F)F)n4)ccc3C)n2c1 (stereo not drawn) [F103]
57 nM | Cc1ccc(-c2noc(C3CC3)n2)cc1NC(=O)c1cnc2ccccn12 [F104]
46 nM | Cc1ccn2c(C(=O)Nc3cc(-c4noc(C5CC(F)C5)n4)ccc3C)cnc2c1 (stereo not drawn) [F111]
56 nM | Cc1ccc2ncc(C(=O)Nc3cc(-c4noc(C5CC(F)C5)n4)ccc3C)n2c1 (stereo not drawn) [F112]
56 nM | Cc1ccc(-c2noc([C@@H]3C[C@H]3F)n2)cc1NC(=O)c1cnc2ccccn12 [F113, N-(5-(5-((1S,2R)-2-fluorocyclopropyl)-1,2,4-oxadiazol-3-yl)-2-methylphenyl)imidazo[1,2-a]pyridine-3-carboxamide]
345 nM | Cc1ccc(-c2noc([C@H]3C[C@@H](N4CCCCC4)C3)n2)cc1NC(=O)c1cnc2ccccn12 [F123]
257 nM | Cc1ccc(-c2noc([C@H]3C[C@@H](N4CCOCC4)C3)n2)cc1NC(=O)c1cnc2ccccn12 [F124]
353 nM | Cc1ccc(-c2noc([C@H]3C[C@H](NC(=O)OC(C)(C)C)C3)n2)cc1NC(=O)c1cnc2ccccn12 [F127]
143 nM | Cc1ccc(-c2noc([C@H]3C[C@H](NS(C)(=O)=O)C3)n2)cc1NC(=O)c1cnc2ccccn12 [F129]
144 nM | O=C(Nc1cc(-c2noc(C3CC(F)(F)C3)n2)ccc1F)c1cnc2ccccn12 [F134]
999 nM | COC1(C(F)(F)F)CC(c2nc(-c3ccc(C)c(N(C)C(=O)c4cnc5ccccn45)c3)no2)C1 (stereo not drawn) [F135]
197 nM | Cc1ccc(-c2noc(C3(N)CCC3)n2)cc1NC(=O)c1cnc2ccccn12 [F137]
137 nM | Cc1ccc(-c2noc(C3(CO)CC3)n2)cc1NC(=O)c1cnc2ccccn12 [F139]
132 nM | Cc1ccc(-c2noc(CNC(=O)C3CC3(F)F)n2)cc1NC(=O)c1cnc2ccccn12 (stereo not drawn) [F140]

IC50 | SMILES
148 nM | COC(=O)NC1CC(c2nc(-c3ccc(C)c(NC(=O)c4cnc5ccccn45)c3)no2)C1 (stereo not drawn) [F142]
237 nM | Cc1ccc(-c2noc(C3CC(F)(F)C3)n2)cc1NC(=O)c1cnc2ccc(CCC(=O)OC(C)(C)C)cn12 [F143]
249 nM | Cc1ccc(-c2noc(C3CC(F)(F)C3)n2)cc1NC(=O)c1cnc2ccc(CN3CCN(C)CC3)cn12 [F144]
238 nM | Cc1ccc(-c2noc(C3CC(F)(F)C3)n2)cc1NC(=O)c1cnc2ccc(CN3CCN(CCO)CC3)cn12 [F145]
351 nM | Cc1ccc(-c2noc(C3CC(F)(F)C3)n2)cc1NC(=O)c1cnc2ccc(-c3cnn(CC(=O)O)c3)cn12 [F147]
305 nM | Cc1ccc(-c2noc(C3(O)CC3)n2)cc1NC(=O)c1cnc2ccccn12 [F148]
378 nM | Cc1ccc(-c2noc(C3CC(F)(F)C3)n2)cc1NC(=O)c1cnc2cc(OC(F)F)ccn12 [F149]
181 nM | Cc1ccc(-c2noc([C@H]3C[C@@H](O)C3)n2)cc1NC(=O)c1cnc2ccc(F)cn12 [F151]
151 nM | O=C(Nc1cc(-c2noc(C3CCC3)n2)ccc1F)c1cnc2ccccn12 [F152]
165 nM | Cc1ccc(-c2noc(C3CC(F)(F)C3)n2)cc1NC(=O)c1cnc2ccc(CC(C)(C)O)cn12 [F153]
365 nM | Cc1ccc(-c2noc(C3CC(F)(F)C3)n2)cc1NC(=O)c1cnc2ccc(CN3CCOC3=O)cn12 [F154]
390 nM | Cc1ccc(-c2noc(C3CC(F)(F)C3)n2)cc1NC(=O)c1cnc2cc(CC(C)(C)O)ccn12 [F155]
125 nM | CC1(C)CC(c2nc(-c3ccc(F)c(NC(=O)c4cnc5ccccn45)c3)no2)C1 [F156]
175 nM | Cc1ccc(-c2noc([C@H]3C[C@@](C)(O)C3)n2)cc1NC(=O)c1cnc2ccc(F)cn12 [F158]
101 nM | COCCOCc1ccc2ncc(C(=O)Nc3cc(-c4noc(C5CC(F)(F)C5)n4)ccc3C)n2c1 [F164]
111 nM | Cc1ccc(-c2noc(C3(F)CCC3)n2)cc1NC(=O)c1cnc2ccccn12 [F166]
516 nM | Cc1ccc(-c2noc(C3(C(N)=O)CC3)n2)cc1NC(=O)c1cnc2ccc(F)cn12 [F168]
> 10000 nM | Cc1ccc(-c2noc([C@H]3C[C@@H](OCC(C)(C)O)C3)n2)cc1NC(=O)c1cnc2ccc(F)cn12 [F172]
> 10000 nM | Cc1ccc(-c2noc(C3CC(F)(F)C3)n2)cc1NC(=O)c1cnc2ccc(-c3nnn[nH]3)cn12 [F173]

Further lines, the compound ahead of its results:

SMILES | IC50
Cc1ccc(-c2noc(C3CC(F)(F)C3)n2)cc1NC(=O)c1cnc2ccc(-n3ccnc3)cn12 [F82] | 78 nM
Cc1ccc(-c2noc(C3CC(F)(F)C3)n2)cc1NC(=O)c1cnc2ccc(COCCF)cn12 [F83] | 29 nM
COCc1n[nH]c(-c2ccc3ncc(C(=O)Nc4cc(-c5noc(C6CC(F)(F)C6)n5)ccc4C)n3c2)n1 [F84] | 22 nM
Cc1ccc(-c2noc(C3CC3(F)F)n2)cc1NC(=O)c1cnc2ccc(COCC(F)(F)F)cn12 (stereo not drawn) [F85] | 69 nM
Cc1ccn2c(C(=O)Nc3cc(-c4noc([C@H]5C[C@](O)(C(F)(F)F)C5)n4)ccc3C)cnc2c1 [F89] | 25 nM
Cc1ccc(-c2noc([C@H]3C[C@](O)(C(F)(F)F)C3)n2)cc1NC(=O)c1cnc2ccc(F)cn12 [F90] | 40 nM
Cc1ccc(-c2noc([C@H]3C[C@@H]3F)n2)cc1NC(=O)c1cnc2ccccn12 [F91] | 20 nM
[2H]c1c([2H])c([2H])n2c(C(=O)Nc3cc(-c4noc(C5CC(F)(F)C5)n4)ccc3C)cnc2c1[2H] [F92] | 35 nM
Cc1ccc(C(=O)NC2CC(F)(F)C2)cc1NC(=O)c1cnc2ccccn12 [F93] | 24 nM
Cc1ccc(-c2noc(C3CC(O)(C(F)(F)F)C3)n2)cc1NC(=O)c1cnc2cc(F)ccn12 (stereo not drawn) [F94] | 56 nM
Cc1ccc(-c2noc(CC3CC3)n2)cc1NC(=O)c1cnc2ccccn12 [F105] | 40 nM
Cc1ccn2c(C(=O)Nc3cc(-c4noc([C@H]5C[C@@H]5F)n4)ccc3C)cnc2c1 [F106] | 52 nM
Cc1ccn2c(C(=O)Nc3cc(-c4noc([C@@H]5C[C@H]5F)n4)ccc3C)cnc2c1 [F107] | 85 nM
Cc1ccc(-c2noc([C@H]3C[C@@H]3F)n2)cc1NC(=O)c1cnc2ccccn12 [F110, N-(5-(5-((1R,2S)-2-fluorocyclopropyl)-1,2,4-oxadiazol-3-yl)-2-methylphenyl)imidazo[1,2-a]pyridine-3-carboxamide] | 58 nM
CO/N=C1/CCC(c2nc(-c3ccc(C)c(NC(=O)c4cnc5ccccn45)c3)no2)C1 (stereo not drawn) [F117] | 203 nM
Cc1ccc(-c2noc(C3(C(F)(F)F)CC3)n2)cc1NC(=O)c1cnc2ccccn12 [F119] | 162 nM
Cc1ccc(-c2noc(C3CC(=O)C3)n2)cc1NC(=O)c1cnc2ccccn12 [F121] | 140 nM

SMILES | IC50
Cc1ccc(-c2noc([C@H]3C[C@@H](N4CCN(C)CC4)C3)n2)cc1NC(=O)c1cnc2ccccn12 [F125] | 393 nM
Cc1ccc(-c2noc(C3CC(=NOCCN4CCOCC4)C3)n2)cc1NC(=O)c1cnc2ccccn12 (stereo not drawn) [F126] | 213 nM
Cc1ccc(-c2noc(C3(N)CC3)n2)cc1NC(=O)c1cnc2ccccn12 [F131] | 311 nM
COCC(=O)NC1(c2nc(-c3ccc(C)c(NC(=O)c4cnc5ccccn45)c3)no2)CC1 [F132] | 554 nM
COCCN[C@H]1C[C@@H](c2nc(-c3ccc(C)c(NC(=O)c4cnc5ccccn45)c3)no2)C1 [F133] | 451 nM
Cc1ccc(-c2noc(C3(NC(=O)OC(C)(C)C)CCC3)n2)cc1NC(=O)c1cnc2ccccn12 [F136] | 171 nM
C=C1CC(c2nc(-c3ccc(F)c(NC(=O)c4cnc5ccccn45)c3)no2)C1 [F138] | 103 nM
Cc1ccc(-c2noc(CNC(=O)OC3(C)CC3)n2)cc1NC(=O)c1cnc2cc(C(F)(F)F)ccn12 [F141] | 391 nM
COCCOCc1ccc2ncc(C(=O)Nc3cc(-c4noc(C5CC(F)(F)C5)n4)ccc3C)n2c1 [F146] | 105 nM
Cc1ccc(-c2noc(C3CC(n4cncn4)C3)n2)cc1NC(=O)c1cnc2ccccn12 (stereo not drawn) [F150] | 167 nM
Cc1ccc(-c2noc(C3CC3O)n2)cc1NC(=O)c1cnc2ccccn12 (stereo not drawn) [F159] | 218 nM
Cc1ccc(-c2noc(C3CC(F)(F)C3)n2)c(C)c1NC(=O)c1cnc2ccccn12 [F160] | 293 nM
Cc1ccc(-c2noc(C3CC(F)(F)C3)n2)cc1NC(=O)c1cnc2ccc(-n3cncc3C)cn12 [F163] | 139 nM
Cc1ccn2c(C(=O)Nc3cc(-c4noc(C5CC5(F)F)n4)ccc3C)cnc2c1 (stereo not drawn) [F165] | 107 nM
Cc1ccc(-c2noc(C3(O)CCC3)n2)cc1NC(=O)c1cnc2ccccn12 [F167] | 144 nM
Cc1ccc(-c2noc(C3CC(F)(F)C3)n2)cc1NC(=O)c1cnc2cc(C3CCNCC3)ccn12 [F169] | 539 nM
Cc1ccc(-c2noc(C3CC(F)(F)C3)n2)cc1NC(=O)c1cnc2ccc(CCC(=O)O)cn12 [F171] | > 10000 nM

Same assay, conditions: Mo7e cells stimulated with human recombinant SCF, 48 hours, 20% FBS (values marked *)

IC50 | SMILES
322 nM | Cc1ccc(-c2nc(C3CC3)no2)cc1NC(=O)c1cnc2ccccn12 [F114]
182 nM | Cc1ccc(-c2noc(C3CC(C)(O)C3)n2)cc1NC(=O)c1cnc2ccccn12 (stereo not drawn) [F116]
